Where a SMILES comes first, the peptide text is derived from it. Where no end group is shown, it is not given here. The star is where a group is joined. X2 = CC1(C)C(/C=C/C2=C(Oc3ccc(S(=O)(=O)O)cc3)C(=C/C=C3/N(CCCCCC(=O)NCCN4C(=O)CC(*)C4=O)c4ccc(S(=O)(=O)O)cc4C3(C)C)/CCC2)=[N+](CCCCS(=O)(=O)O)c2ccc(S(=O)(=O)[O-])cc21; X1 = CC1(C)C(/C=C/C=C/C=C/C=C2/N(CCCCCC(=O)NCCN3C(=O)CC(*)C3=O)c3ccc4ccccc4c3C2(C)C)=[N+](CCCCS(=O)(=O)[O-])c2ccc3ccccc3c21; ICG maleimide = indocyanine green maleimide
Key:
[1] = residue X in AcWL-X-LL, relative to virtual glycine; cited from earlier work
[2] = NIR fluorescence imaging of blood vessels and blood flow (ear, leg, blood samples) in mice; assay type: in vivo, mouse; details: for fluorescent signal in blood samples: blood collected 5-120 min after IV injection; for imaging of blood vessels in ear and leg: IV 100 μL of 40 μM, 5, 30, 60, 90, 120 min
Protocol: Adult female nude mice (Envigo), 20 g in body mass were used in the study. Fluorescent constructs were given as a single tail vein injection in amounts of 100 μL of 40 μM in PBS. Imaging of mouse ear and leg was performed at 5, 30, 60, 90 and 120 min after construct administration. At 5, 30, 60, 90 and 120 min after construct administration 5 μL of blood was withdrawn from tail (and mixed with 5 μL of anticoagulating solution to preserve blood) while animal was under anesthesia. Mice were euthanized immediately after last imaging point (120 min). Blood collected from all animals was deposited on the glass slide, dried and imaged. Imaging was performed using Novadaq clinical imaging instrument. Autofluorescence was established by imaging mouse with no injection of fluorescent constructs (the level of autofluorescence signal was insignificant compared to the signal after the constructs administration).

[3] = test system: 4T1 murine mammary carcinoma; assay: Tumor targeting in mice bearing 4T1 tumors; assay type: in vivo, mouse; details: 20 μM, IV, 16 h
Protocol: Adult female nude mice and female BALB/cAnNHsd mice (Envigo), 20-25 g in body mass were used in the study. Mouse mammary cancer 4T1 cells were subcutaneously implanted in the right flank (8×10^5 cells/0.1 mL/flank) of adult female BALB/cAnNHsd mice. Rat bladder cancer AY27 cells were subcutaneously implanted in the right flank (8×10^5 cells/0.1 mL/flank) of adult female nude mice. When tumors reached approximately 5-6 mm in diameter, single tail vein injection or single intraperitoneal injection of fluorophore-pHLIP® solutions in PBS were performed. Fluorescent constructs were used in amounts of 100 μL of 40 μM, or 100 μL of 20 μM, or 100 μL of 10 μM, or 100 μL of 5 μM. Imaging of mouse was performed at 16 hours after constructs administration. Skin was removed from the tumor site just before imaging while animal was under gas anesthesia, and mice were euthanized immediately after imaging. Tumor, kidney and liver were harvested, imaged and used for histopathological analysis. Imaging was performed using Stryker clinical imaging instrument. Autofluorescence was established by imaging mouse with no injection of fluorescent constructs (the level of autofluorescence signal was insignificant compared to the signal after the constructs administration).

[4] = cited from earlier work
[5] = cited from earlier work; remark: listed apart in the source
[6] = free ICG as used now; cited from earlier work
[7] = humans, high dose of 5 mg/kg of body weight; cited from earlier work

Molecule | ΔGX^cor, solvation free energy of the side chain [1] | also measured
N[C@@H](Cc1c[nH]cn1)C(=O)O [His, Histidine] | -1.18 kcal/mol | –
N[C@@H](CCC(=O)O)C(=O)O [Glu, Glutamic acid] | -2.48 kcal/mol | –
CC[C@H](C)[C@H](NC(=O)[C@@H]1CCCN1C(=O)[C@H](CC(N)=O)NC(=O)[C@H](CCC(N)=O)NC(=O)[C@H](CCC(=O)O)NC(=O)[C@H](CSC1CC(=O)N(CCNC(=O)CCCCCN2/C(=C/C=C/C=C/C=C/C3=[N+](CCCCS(=O)(=O)[O-])c4ccc5ccccc5c4C3(C)C)C(C)(C)c3c2ccc2ccccc32)C1=O)NC(=O)[C@H](C)N)C(=O)N[C@@H](Cc1ccc(O)cc1)C(=O)N[C@@H](Cc1c[nH]c2ccccc12)C(=O)N[C@@H](C)C(=O)N[C@@H](CCCNC(=N)N)C(=O)N[C@@H](Cc1ccc(O)cc1)C(=O)N[C@@H](C)C(=O)N[C@@H](CC(N)=O)C(=O)N[C@@H](Cc1c[nH]c2ccccc12)C(=O)N[C@@H](CC(C)C)C(=O)N[C@@H](Cc1ccccc1)C(=O)N[C@H](C(=O)N[C@H](C(=O)N1CCC[C@H]1C(=O)N[C@@H](CC(C)C)C(=O)N[C@@H](CC(C)C)C(=O)N[C@@H](CC(C)C)C(=O)N[C@@H](CC(C)C)C(=O)N[C@@H](CC(N)=O)C(=O)N[C@@H](CC(C)C)C(=O)N[C@@H](C)C(=O)N[C@@H](CC(C)C)C(=O)N[C@@H](CC(C)C)C(=O)N[C@H](C(=O)N[C@@H](CC(=O)O)C(=O)N[C@@H](C)C(=O)N[C@@H](CC(=O)O)C(=O)N[C@@H](CCC(=O)O)C(=O)NCC(=O)N[C@H](C(=O)O)[C@@H](C)O)C(C)C)[C@@H](C)O)[C@@H](C)O (some centres unmarked) [ICG-NpHLIP®] (H-AC(X1)EQNPIYWARYANWLFTTPLLLLNLALLVDADEGT-OH) | – | fluorescent signal in blood samples [2]: significantly reduced signal
N[C@@H](CC(=O)O)C(=O)O [Asp, Aspartic acid] | -2.49 kcal/mol | –
IR800-WT: IR800 maleimide conjugated to Cys of WT pHLIP® peptide (SEQ ID NO: 444) (AC(IR800 maleimide)EQNPIYWARYADWLFTTPLLLLDLALLVDADEGT) | – | imaging of blood vessels in ear and leg [2]: better in imaging of blood vessels, however not nearly as good as ICG-WT and ICG-Var3 pHLIP®s
NC(=O)C[C@H](N)C(=O)O [Asn, Asparagine] | +0.30 kcal/mol | –
CC(C)C[C@H](NC(=O)[C@H](Cc1ccc(O)cc1)NC(=O)[C@H](C)NC(=O)[C@H](CCCNC(=N)N)NC(=O)[C@H](Cc1c[nH]c2ccccc12)NC(=O)[C@@H]1CCCN1C(=O)[C@H](CC(N)=O)NC(=O)[C@H](CCC(N)=O)NC(=O)[C@H](CC(=O)O)NC(=O)[C@H](CC(=O)O)NC(=O)[C@H](CSC1CC(=O)N(CCNC(=O)CCCCCN2/C(=C/C=C3\CCCC(/C=C/C4=[N+](CCCCS(=O)(=O)O)c5ccc(S(=O)(=O)[O-])cc5C4(C)C)=C3Oc3ccc(S(=O)(=O)O)cc3)C(C)(C)c3cc(S(=O)(=O)O)ccc32)C1=O)NC(=O)[C@H](C)N)C(=O)N[C@@H](CC(=O)O)C(=O)N[C@@H](CC(C)C)C(=O)N[C@@H](CC(C)C)C(=O)N[C@@H](Cc1ccccc1)C(=O)N1CCC[C@H]1C(=O)N[C@H](C(=O)N[C@@H](CC(=O)O)C(=O)N[C@H](C(=O)N[C@@H](CC(C)C)C(=O)N[C@@H](CC(C)C)C(=O)N[C@@H](CC(C)C)C(=O)N[C@@H](CC(=O)O)C(=O)N[C@@H](CC(C)C)C(=O)N[C@@H](CC(C)C)C(=O)N[C@@H](Cc1c[nH]c2ccccc12)C(=O)N[C@@H](C)C(=O)O)[C@@H](C)O)[C@@H](C)O (some centres unmarked) [IR800-Var3] (H-AC(X2)DDQNPWRAYLDLLFPTDTLLLDLLWA-OH) | – | organ of clearance [3]: cleared by the kidney
C[C@@H](O)[C@H](N)C(=O)O [Thr, Threonine] | +0.90 kcal/mol | –
N[C@@H](Cc1c[nH]c2ccccc12)C(=O)O [Trp, Tryptophan] | +3.24 kcal/mol | –
C#CCNC(=O)CCCCC[N+]1=C(/C=C/C=C/C=C/C=C2\N(CCCCS(=O)(=O)[O-])c3ccc4ccccc4c3C2(C)C)C(C)(C)c2c1ccc1ccccc21 [ICG-alkyne] | – | Solubility [4]: DMSO, DMF, Acetonitrile, Methanol
NCCCC[C@H](N)C(=O)O [Lys, Lysine] | -1.65 kcal/mol | –
N[C@@H](Cc1ccccc1)C(=O)O [Phe, Phenylalanine] | +2.86 kcal/mol | –
N[C@@H](Cc1ccc(O)cc1)C(=O)O [Tyr, Tyrosine] | +1.86 kcal/mol | –
CC[C@H](C)[C@H](NC(=O)[C@@H]1CCCN1C(=O)[C@H](CC(N)=O)NC(=O)[C@H](CCC(N)=O)NC(=O)[C@H](CCC(=O)O)NC(=O)[C@H](CSC1CC(=O)N(CCNC(=O)CCCCCN2/C(=C/C=C/C=C/C=C/C3=[N+](CCCCS(=O)(=O)[O-])c4ccc5ccccc5c4C3(C)C)C(C)(C)c3c2ccc2ccccc32)C1=O)NC(=O)[C@H](C)N)C(=O)N[C@@H](Cc1ccc(O)cc1)C(=O)N[C@@H](Cc1c[nH]c2ccccc12)C(=O)N[C@@H](C)C(=O)N[C@@H](CCCNC(=N)N)C(=O)N[C@@H](Cc1ccc(O)cc1)C(=O)N[C@@H](C)C(=O)N[C@@H](CC(=O)O)C(=O)N[C@@H](Cc1c[nH]c2ccccc12)C(=O)N[C@@H](CC(C)C)C(=O)N[C@@H](Cc1ccccc1)C(=O)N[C@H](C(=O)N[C@H](C(=O)N1CCC[C@H]1C(=O)N[C@@H](CC(C)C)C(=O)N[C@@H](CC(C)C)C(=O)N[C@@H](CC(C)C)C(=O)N[C@@H](CC(C)C)C(=O)N[C@@H](CC(=O)O)C(=O)N[C@@H](CC(C)C)C(=O)N[C@@H](C)C(=O)N[C@@H](CC(C)C)C(=O)N[C@@H](CC(C)C)C(=O)N[C@H](C(=O)N[C@@H](CC(=O)O)C(=O)N[C@@H](C)C(=O)N[C@@H](CC(=O)O)C(=O)N[C@@H](CCC(=O)O)C(=O)NCC(=O)N[C@H](C(=O)O)[C@@H](C)O)C(C)C)[C@@H](C)O)[C@@H](C)O (some centres unmarked) [ICG-WT pHLIP®] | – | fluorescent signal in blood samples [2]: persistence of strong fluorescent signal within 2 hours
N=C(N)NCCC[C@H](N)C(=O)O [Arg, Arginine] | -0.66 kcal/mol | –
CC(C)[C@H](N)C(=O)O [Val, Valine] | +1.61 kcal/mol | –
ICG-Hum pHLIP®: ICG maleimide conjugated to Cys of Hum pHLIP® GCDNNEGFFATLGGEIPLWSDVVLAIEG (SEQ ID NO: 446) (GC(ICG maleimide)DNNEGFFATLGGEIPLWSDVVLAIEG) | – | imaging of blood vessels in ear and leg [2]: slow in reaching the best imagibility condition and was fast in decaying
O=C(O)[C@@H]1CCCN1 [Pro, Proline] | +1.01 kcal/mol | –
N[C@@H](CO)C(=O)O [Ser, Serine] | +0.69 kcal/mol | –
CC1(C)C(/C=C/C=C/C=C/C=C2\N(CCCCS(=O)(=O)[O-])c3ccc4ccccc4c3C2(C)C)=[N+](CCCCS(=O)(=O)[O-])c2ccc3ccccc3c21.[Na+] [ICG, indocyanine green] | – | time of appearance unconjugated in the bile ([5]; after intravenous injection): about 8 min; half-life time ([5]; following intravenous injection): 2.5 min; time to reach the nearest draining lymph node ([5]; injected outside blood vessels): ≤ 15 min; imaging time [6]: 2 to 5 min; toxic effects [7]: No significant toxic effects
CSCC[C@H](N)C(=O)O [Met, Methionine] | +1.82 kcal/mol | –
C[C@H](N)C(=O)O [Ala, Alanine] | +0.65 kcal/mol | –

Source: patent publication US11738096B2, “Method of detecting diseased or damaged tissue with a pH-triggered polypeptide fluorophore composition” (University of Rhode Island Board of Trustees, priority 2016, dated 2023)
